Measurements taken from patent publication US5637085A, “Method of cancer tumor treatment by slow release delivery of 1,2,4-benzotriazine oxides to tumor site” (priority 1995, dated 1997).
Where “and” joins values, the source holds several entries; their conditions need not be identical. Equal values may be shown once.

Columns and labels:
[1] = test system: mouse squamous cell VII tumors; conditions: cited from earlier work
[2] = test system: mouse SCCVII and other tumors; conditions: multiple injections in conjunction with fractionated irradiation; cited from earlier work
[3] = test system: FSalIC Murine Fibrosarcoma; conditions: SR-4233 just before single-dose cyclophosphamide, carmustine or melphalan; cited from earlier work
[4] = Toxicity, experiment B: mean low and final animal weights as a fraction of the pretreatment weight; format: in vivo, male Balb/c athymic nude mice
From the text: (§1) Nude mouse xenonaft: Six week old male Balb/c athymic nude mice received subcutaneous injections of 4×10^6 (experiment A) and 5×10^6 (experiment B) U251 cells in the left posterior extremity. Tumors were visible after 6 to 8 days. Tumor sizes ranged from 0.51-1.2 cm^3 at the start of the treatment. […] Mice were sacrificed after tumors reached at least twice their original tumor volume.
(§2) Systemic Administration of Tirapazamine: The drug was supplied by Sanoff Winthrop, Collegeville, Pa. Tirapazamine was dissolved in physiological saline at a concentration of […] and intraperitoneal (IP) injections were given in a volume of 0.02 ml/g body weight (0.08 mmole/kg). Animals in experiment A received daily injections, and animals in experiment B received injections twice daily over 3 consecutive days for a total of 6 injections.
(§3) Implantation of Polymer Discs:. For surgical implantation of polymer discs, animals were anesthetized with methoxyflurane, a skin incision was made next to the xenograft, and an empty disc or tirapazamine disc was inserted in the center of the tumor via a single 3-4 mm incision. The incision was closed using wound clips. Contralateral flank polymer discs were placed subcutaneously using the same technique.
(§4) In Vivo Irradiation: A Mark I Irradiator (Model 68, J. L. Shepherd and Assoc.) was used for in vivo irradiation. The dose to the xenograft was calibrated using TLD dosimetry and confirmed with radiochromic dye media (Gafchromic) mouthed in polystyrene mouse phantoms. The tumor bearing flank was selectively irradiated, with shielding of the mouse trunk and head. In experiment A, irradiation began on the first day of IP tirapazamine injection, and animals received 2 Gy×6 consecutive daily fractions. In experiment B, irradiation and systemic tirapazamine administration began one day following polymer disc implantation and animals received 2 Gy twice daily (separated by 5-6 hours) over 3 consecutive days for a total of 6 fractions. Radiation treatments were given 5-20 minutes following IP drag or saline injections.
(§5) Tumor Volumetrics: Tumor length (L), width (W), and height (H) were measured twice weekly and tumor volumes were calculated as pi/6×L×W×H. The logarithm of the ratio of this product (V) to the initial product (VO) for each animal was calculated and the mean logarithm of this ratio for each treatment group was plotted versus time. The time of regrowth to twice the original tumor volume (V/VO=2; log V/VO=0.3) for each animal and treatment group was calculated from the plot of log V/VO vs. time. Mean tumor volume doubling time (VDT) was used as the endpoint to determine efficacy of a given treatment arm on U251 xenograft tumors. Each animal was weighed bi-weekly to assess possible toxicity to treatment.
The weight losses were transient, with all groups exceeding their pretreatment weights prior to sacrifice.

U251 GBM xenograft [5] = experiment: Experiment A: U251 xenograft response to systemic delivery of tirapazamine (mean tumor volume doubling time); format: in vivo, human U251 in male Balb/c athymic nude mice
Procedure: (§6) Tumor Cell line: The human GBM cell line (U251) used in the study was obtained from the DCT Tumor Repository, National Cancer Institute. Cells were cultured in Delbecco's MEM/Ham's F-12 nutrient mixture with 10% fetal bovine serum (GIBCO) and […] (penicillin and streptomycin) in 12×80 mm plastic culture dishes or T25 culture flasks. Cells were incubated (37° C.) in a mixture of 5% carbon dioxide and 95% air. Media were changed twice weekly and cells were passaged at confluence with 0.5% trypsin.
as §1, §2, §4
as §5, with “Each animal was weighed bi-weekly to assess possible toxicity to treatment.” left out

U251 GBM xenograft [6] = experiment: Experiment B: U251 xenograft response to systemic and intratumoral polymer delivery of tirapazamine (mean tumor volume doubling time); format: in vivo, human U251 in male Balb/c athymic nude mice
Procedure: as §6, §1, §2
Tirapazamine Polymer Formulation: 2 mg tirapazamine and 8 mg PCPP:SA polymer were combined in methylene chloride ([…] wt/wt). The solvents were removed by desiccation under vacuum. The tirapazamine containing polymers were then pressed into discs measuring 3 mm in diameter and 1 mm in height. Each disc weighed 10 mg.
as §3, §4, §5
Outcomes among experimental groups were compared using the two tailed Student's test.
Intralesional delivery of tirapazamine by polymer implants: After establishing the antitumor effect of systemic administration of tirapazamine on GBM xenografts, experiment B was done to evaluate intralesional polymer delivery of tirapazamine alone or combined with irradiation. […]

[7] = within one hour of injecting tirapazamine
[8] = contralateral flank drug implant and tumor empty implant + radiation, group 4
[9] = tumor drug implant + IP tirapazamine + radiation, group 7
[10] = tumor drug implant + IP tirapazamine, no radiation, group 2
[11] = tumor drug implant + radiation, group 5
[12] = tumor empty implant + IP tirapazamine + radiation, group 6

## Nc1n[n+]([O-])c2ccccc2[n+]1[O-] [tirapazamine, 3-amino-1,2,4-benzotriazine-1,4-dioxide]
[1]; after injecting tirapazamine
  time of return of hypoxic fraction to pretreatment levels: 3 to 5 h
[1]; [7]
  hypoxic fraction: 0.57%
  hypoxic fraction, % of pretreatment levels: about 7%
[2]
  tumor cell kill with fractionated irradiation: increases tumor cell kill while sparing normal tissue
[3]
  cytotoxic effects on tumor cells in combination with alkylating agents: marked dose enhancement leading to synergistic cytotoxic effects on tumor cells
[4]; combination of IP and polymer tirapazamine, transient, toxicity primarily associated with the IP treatments
  systemic toxicity (weight loss): produced systemic toxicity
[4]; [8]
  Final body weight/Pretreatment weight (± SEM): 1.08 ± .02
  Low weight post treatment/Pretreatment weight (± SEM): 0.96 ± .02
[4]; [9]
  Final body weight/Pretreatment weight (± SEM): 1.06 ± .03
  Low weight post treatment/Pretreatment weight (± SEM): 0.85 ± .03
[4]; [10]
  Final body weight/Pretreatment weight (± SEM): 1.05 ± .04
  Low weight post treatment/Pretreatment weight (± SEM): 0.95 ± .01
[4]; [11]
  Final body weight/Pretreatment weight (± SEM): 1.06 ± .01
  Low weight post treatment/Pretreatment weight (± SEM): 0.95 ± .01
[4]; [12]
  Final body weight/Pretreatment weight (± SEM): 1.09 ± .03
  Low weight post treatment/Pretreatment weight (± SEM): 0.89 ± .01
U251 GBM xenograft [5]; IP tirapazamine alone, no radiation
  effect on mean volume doubling time (VDT): no effect
U251 GBM xenograft [5]; IP tirapazamine daily × 6 (0.08 mmole/kg) plus radiation 2Gy daily × 6, group 4
  Mean xenograft tumor volume doubling time (VDT) ± SEM: 35 days and 35 ± 2.5 days
U251 GBM xenograft [5]; IP tirapazamine daily × 6 (0.08 mmole/kg), no radiation, group 2
  Mean xenograft tumor volume doubling time (VDT) ± SEM: 12 days and 12 ± 0.6 days
U251 GBM xenograft [5]; fractionated radiation (2 Gy×6) plus IP tirapazamine, 12 days for fractionated radiation alone
  lengthening of mean VDT: 25 days
U251 GBM xenograft [6]; contralateral flank drug implant and tumor empty implant + radiation 2Gy bid × 3 days, group 4
  Mean xenograft tumor doubling time (VDT) ± SEM: 16.4 ± 1.57 days
U251 GBM xenograft [6]; group 7 vs IP tirapazamine alone plus radiation, P=0.016
  growth delay: 11.8 days
U251 GBM xenograft [6]; group 7 vs tumor drug implant alone plus radiation, P=0.004
  growth delay: 12.8 days
U251 GBM xenograft [6]; tumor drug implant + IP tirapazamine + radiation (group 7) vs radiation alone controls, P<0.001
  growth delay: 16.5 days
U251 GBM xenograft [6]; tumor drug implant + IP tirapazamine bid + radiation 2Gy bid × 3 days, group 7
  Mean xenograft tumor doubling time (VDT) ± SEM: 35.8 ± 2.0 days
U251 GBM xenograft [6]; tumor drug implant + IP tirapazamine bid, no radiation, group 2
  Mean xenograft tumor doubling time (VDT) ± SEM: 10.5 ± .87 days
U251 GBM xenograft [6]; tumor drug implant + IP tirapazamine, no radiation vs tumor empty polymer implant (group 1), P=0.15
  growth delay: 3.5 days
U251 GBM xenograft [6]; tumor drug implant + radiation 2Gy bid × 3 days, no IP tirapazamine, group 5
  Mean xenograft tumor doubling time (VDT) ± SEM: 23.0 ± 2.49 days
U251 GBM xenograft [6]; tumor drug implant plus radiation (group 5) vs tumor empty implant plus contralateral drug implant with radiation, P=0.055
  growth delay: 6.6 days
U251 GBM xenograft [6]; tumor drug implant plus radiation (group 5) vs tumor empty polymer implant plus radiation, P=0.24
  growth delay: 3.7 days
U251 GBM xenograft [6]; tumor empty implant + IP tirapazamine bid + radiation 2Gy bid × 3 days, group 6
  Mean xenograft tumor doubling time (VDT) ± SEM: 24.8 ± 3.0 days
U251 GBM xenograft [6]; tumor empty implant + IP tirapazamine with radiation (group 6) vs tumor empty implant plus radiation, P=0.15
  growth delay: 5.5 days
